Here are results for two molecules from patent publication US8569469B2, “B12-dependent dehydratases with improved reaction kinetics” (priority 2002, dated 2013).

For orientation: Ki means the dissociation constant of the complex between target and ligand, obtained from inhibition or displacement. Low readings indicate higher affinity, high ones lower affinity. As usually defined, the Km is the substrate concentration at which the rate is half of its maximum.

What all share (assay type): biochemical
Experiment [1] concerns the target Klebsiella pneumoniae ATCC 25955 B12-dependent glycerol dehydratase (GDH), wild type, SEQ ID NO: 1 (α, β, γ subunits SEQ ID NO: 2, 3, 4) (Klebsiella pneumoniae, UniProt O08505+Q59476). The experiment can be described thus: Time course of GDH reaction with glycerol, with and without 1,3-propanediol (permeabilized cells, FIG. 1). Also on record: permeabilized cells (A1) or purified (A2-A4). The procedure: FIG. 1 illustrates the typical time course associated with GDH inactivation. These enzyme activity assays were conducted using the GDH encoded by dhaB1, dhaB2, and dhaB3 (SEQ ID NO:1 and SEQ ID NO: 2, 3, and 4, respectively) of K. pneumoniae (WO 01/012833A2).
Cells were permeabilized as follows: aliquots of culture (0.3 mL) were dispensed into the square wells of a polypropylene deep-well plate (Beckman-Coulter, Fullerton, Calif.) and 10 μL of toluene containing 2.5% (v/v) Triton X-100 detergent was added to each well. Plates were then shaken for 10 min at top speed on an IKA MTS4 shaker (IKA-Werke Gmbh., Staufen, Germany). Working under red light to protect the coenzyme B12, reactions were started by adding 5 volumes of substrate solution to 1 volume of permeabilized cell suspension. The substrate solution contained 12 mM glycerol and 24 μM coenzyme B12 in 0.1 M K-Hepes, pH 8. At timed intervals, 12.5 μl aliquots of the reaction were added to the wells of a 96-well plate which contained 12.5 μl of 3 mg/mL MBTH in 0.4 M glycine-HCl, pH 2.7. At least 20 min after sampling, 125 μL of 5.5 mM FeCl3 in 10 mM HCl was added to each of the MBTH-containing samples. After a further 20 min or longer, the blue color associated with GDH activity was quantitated as absorbance at 670 nm using a Spectramax 160 plate reader (Molecular Devices, Sunnyvale, Calif.). A similar experiment was conducted in which the substrate solution was supplemented with 50 mM 1,3-propanediol.
The rate of product formation decreases rapidly with time as inactivation occurs. A theoretical curve was drawn through the points by fitting three parameters to the following equation y=T0+amp(1−exp(−kinact obsd*time)). […] The fitting parameters are related to the kinetic properties of the reaction as follows: the amplitude is equal to the initial rate of the reaction (v) divided by the observed enzyme inactivation rate (kinact obsd). The initial rate is [GDH][gly]kcat/(Km+[gly]). […]

Experiment [2] deals with Klebsiella pneumoniae GDH variant Sma3002 (α-Tyr271Cys, α-Tyr502His, stop of α to Gln (α-β fusion), β-Gln2Arg, β-Phe11 silent), SEQ ID NO: 140 (amino acid 141, (Klebsiella pneumoniae, UniProt O08505+Q59476, form not given/Y271C/Y502H)). Particulars: Sma3002 (Type 2).
Experiment [3] has as its target Klebsiella pneumoniae GDH variant Xba3007 (γ-Thr53Ala), SEQ ID NO: 40 (amino acid 41, 42, 43) (Klebsiella pneumoniae, UniProt O08505+Q59476). Particulars: Xba3007 (Type 1).
The target in experiment [4] is Klebsiella pneumoniae GDH variant Xba3009 (α-Thr77Ala, α-Cys193Ser, stop of α to Glu (α-β fusion), β-Lys56Arg, β-Ala88 silent, β-Asp111Glu, γ-His67Tyr, γ-Thr114 (Klebsiella pneumoniae, UniProt O08505+Q59476, C193S/D111E, form not given/K56R/T77A)). Particulars: Xba3009 (Type 4).

On to `OCCCO` [1,3-propanediol], for which the Ki in experiment [1] is around 15 mM. Also, the “inactivation, times faster with 1,3-propanediol” value in experiment [1] (50 mM 1,3-propanediol, 10 mM glycerol, vs without 1,3-propanediol) is listed as around 3 times. Besides, the inhibition at 50000 µM in experiment [1] (pH 8, read-out: reduction of initial rate of the reaction) is around 20%.
As to `OCC(O)CO` [glycerol], in experiment [2], the Km was found to be 2940 µM. Also, the kcat in experiment [2] is reported as 9,830 min^−1; in experiment [3], 16,220 min^−1; in experiment [4], 65,373 min^−1.
